From the NIST ThermoML archive (doi:10.1016/j.tca.2011.11.009)

Conditions: Liquid, Vibrating tube method

CCCCn1cc[n+](C)c1.N#C[S-] [1-butyl-3-methylimidazolium thiocyanate]
mass density [kg/m3]
Conditions	298.15 K	308.15 K	318.15 K	328.15 K	338.15 K
100 kPa	1070.18	1063.9	1058.33	1052.54	1046.94
200 kPa	1070.23	1063.94	1058.37	1052.59	1047.03
300 kPa	1070.25	1064.03	1058.41	1052.62	1047.05
400 kPa	1070.29	1064.09	1058.45	1052.69	1047.1
500 kPa	1070.32	1064.13	1058.5	1052.69	1047.14
600 kPa	1070.36	1064.18	1058.54	1052.75	1047.17
800 kPa	1070.43	1064.29	1058.61	1052.82	1047.27
1000 kPa	1070.5	1064.35	1058.68	1052.94	1047.33
2000 kPa	1070.88	1064.73	1059.07	1053.31	1047.74
4000 kPa	1071.63	1065.48	1059.88	1054.11	1048.56
6000 kPa	1072.37	1066.26	1060.63	1054.91	1049.39
8000 kPa	1073.11	1067.02	1061.43	1055.68	1050.19
10000 kPa	1073.83	1067.77	1062.18	1056.48	1050.99

CCCC[n+]1ccc(C)cc1.N#C[S-] [1-butyl-4-methylpyridinium thiocyanate]
mass density [kg/m3]
Conditions	298.15 K	308.15 K	318.15 K	328.15 K	338.15 K
100 kPa	1061.57	1055.36	1049.83	1044.2	1037.12
200 kPa	1061.61	1055.39	1049.88	1044.23	1037.15
300 kPa	1061.64	1055.43	1049.93	1044.29	1037.18
400 kPa	1061.66	1055.48	1049.96	1044.33	1037.18
500 kPa	1061.7	1055.53	1050.03	1044.34	1037.24
600 kPa	1061.74	1055.59	1050.06	1044.41	1037.29
800 kPa	1061.81	1055.69	1050.13	1044.45	1037.35
1000 kPa	1061.88	1055.77	1050.2	1044.55	1037.43
2000 kPa	1062.24	1056.11	1050.6	1044.93	1037.83
4000 kPa	1062.95	1056.86	1051.37	1045.71	1038.61
6000 kPa	1063.68	1057.62	1052.12	1046.49	1039.4
8000 kPa	1064.4	1058.35	1052.88	1047.26	1040.18
10000 kPa	1065.1	1059.08	1053.61	1048.01	1040.98

CCn1cc[n+](C)c1.N#C[S-] [1-ethyl-3-methylimidazolium thiocyanate]
mass density [kg/m3]
Conditions	298.15 K	308.15 K	318.15 K	328.15 K	338.15 K
100 kPa	1116.69	1110.39	1104.8	1098.18	1092.87
200 kPa	1116.71	1110.42	1104.83	1098.22	1092.93
300 kPa	1116.72	1110.47	1104.87	1098.27	1092.97
400 kPa	1116.77	1110.5	1104.91	1098.31	1093
500 kPa	1116.82	1110.54	1104.97	1098.32	1093.05
600 kPa	1116.86	1110.59	1105	1098.38	1093.11
800 kPa	1116.92	1110.68	1105.04	1098.43	1093.18
1000 kPa	1117	1110.74	1105.13	1098.54	1093.24
2000 kPa	1117.35	1111.1	1105.5	1098.87	1093.64
4000 kPa	1118.04	1111.81	1106.24	1099.64	1094.38
6000 kPa	1118.74	1112.53	1106.96	1100.38	1095.15
8000 kPa	1119.43	1113.24	1107.68	1101.1	1095.91
10000 kPa	1120.11	1113.94	1108.39	1101.83	1096.65
